In ChEMBL document CHEMBL1153846, “QSAR studies for diarylpyrimidines against HIV-1 reverse transcriptase wild-type and mutant strains” (Eur J Med Chem, 2009):

Experiments:
[1] = test system: Human immunodeficiency virus type 1 reverse transcriptase (Human immunodeficiency virus 1), Q72547 [L100I]; assay: Inhibition of HIV1 reverse transcriptase L100I mutant
[2] = test system: Human immunodeficiency virus type 1 reverse transcriptase (Human immunodeficiency virus 1), Q72547 [[…]]; assay: Inhibition of HIV1 reverse transcriptase Y188L mutant
[3] = Hydrophobic index, Log P of the compound; assay type: physicochemical; details: octanol/water
[4] = test system: Human immunodeficiency virus type 1 reverse transcriptase (Human immunodeficiency virus 1), Q72547 [Y181C]; assay: Inhibition of HIV1 reverse transcriptase Y181C mutant
[5] = target: Human immunodeficiency virus type 1 reverse transcriptase (Human immunodeficiency virus 1) (UniProt Q72547); assay: Inhibition of HIV1 wild type reverse transcriptase

| SMILES | log(1/C) [1] | log(1/C) [2] | logP ([3]; read-out: logP) | log(1/C) [4] | log(1/C) [5] | logP [3] |
| --- | --- | --- | --- | --- | --- | --- |
| C=Cc1cnc(Nc2ccc(C#N)cc2)nc1Nc1c(C)cc(C)cc1C | 7.46 | 7.54 | 2.1 | 7.44 | 8.6 |  |
| Cc1cc(C)c(Oc2nc(Nc3ccc(C#N)cc3)ncc2Br)c(C)c1 | 7.96 | 7.57 | 1.82 | 7.44 | 8.26 |  |
| C#Cc1cnc(Nc2ccc(C#N)cc2)nc1Nc1c(C)cc(C)cc1C |  |  | 1.63 |  |  |  |
| Cc1cc(C)c(Nc2nc(Nc3ccc(C#N)cc3)ncc2C#N)c(C)c1 | 7.2 | 7.11 | 1.49 | 7.4 | 9 |  |
| Cc1cc(C#N)cc(C)c1Sc1ccnc(Nc2ccc(C#N)cc2)n1 | 6.76 | 7.36 | 2.06 | 7.17 | 8.24 |  |
| Cc1cc(C#N)cc(C)c1Oc1nc(Nc2ccc(C#N)cc2)ncc1N | 7.8 | 8.24 | -0.21 | 8.03 | 9 |  |
| Cc1cc(Br)cc(C)c1Nc1ccnc(Nc2ccc(C#N)cc2)n1 | 7.12 | 7.16 | 1.54 | 7.77 | 8.64 |  |
| Cc1cc(C#N)cc(C)c1Nc1ccnc(Nc2ccc(C#N)cc2)n1 | 7.47 | 8.11 | 1.21 | 8.15 | 9.4 |  |
| Cc1cc(C)c(Nc2nc(Nc3ccc(C#N)cc3)ncc2C)c(C)c1 | 7.92 | 7.74 | 1.92 | 7.92 | 8.77 |  |
| Cc1cc(Br)cc(C)c1Oc1ccnc(Nc2ccc(C#N)cc2)n1 | 6.95 | 7.1 | 1.72 | 7.23 | 8.54 |  |
| Cc1cc(C)c(Nc2nc(Nc3ccc(C#N)cc3)ncc2Cl)c(C)c1 | 7.77 | 7.47 | 1.72 | 7.49 | 8.57 |  |
| Cc1cc(C)c(Oc2ccnc(Nc3ccc(C#N)cc3)n2)c(C)c1 | 7.66 | 7.26 | 1.82 | 7.42 | 8.54 |  |
| Cc1cc(C)c(Sc2ccnc(Nc3ccc(C#N)cc3)n2)c(C)c1 | 7.27 | 7.7 | 2.16 | 7.6 | 8.44 |  |
| Cc1cc(Br)c(Nc2ccnc(Nc3ccc(C#N)cc3)n2)c(Br)c1 | 8.52 |  | 1.44 | 8.47 | 9.15 |  |
| Cc1cc(C)c(Nc2nc(Nc3ccc(C#N)cc3)ncc2-c2ccccc2)c(C)c1 |  |  | 3.14 |  | 7.62 |  |
| Cc1cc(C#N)cc(C)c1Oc1nc(Nc2ccc(C#N)cc2)nc(N)c1Br [ETRAVIRINE] | 8.48 | 8.34 | 1.54 | 8.15 | 8.85 |  |
| Cc1cc(C#N)cc(C)c1Nc1nc(Nc2ccc(C#N)cc2)ncc1C#N | 7.04 | 8.07 | 1.06 | 7.12 | 9.3 |  |

| SMILES | log(1/C) [1] | log(1/C) [2] | logP ([3]; read-out: logP) | log(1/C) [4] | log(1/C) [5] | logP [3] |
| --- | --- | --- | --- | --- | --- | --- |
| N#Cc1ccc(Nc2nccc(Nc3c(Br)cc(F)cc3Br)n2)cc1 | 7.82 | 7.19 | 0.68 | 7.82 | 9.22 |  |
| Cc1cccc(C)c1Nc1ccnc(Nc2ccc(C#N)cc2)n1 | 6.67 | 6.59 | 1.49 | 7.21 | 9.15 |  |
| Cc1cc(Cl)cc(Cl)c1Nc1ccnc(Nc2ccc(C#N)cc2)n1 | 7.22 | 7.07 | 0.89 | 7.74 | 9 |  |
| Cc1cc(Cl)cc(C)c1Nc1ccnc(Nc2ccc(C#N)cc2)n1 | 6.49 | 6.94 | 1.27 | 7.72 | 8.68 |  |
| Cc1cnc(Nc2ccc(C#N)cc2)nc1Nc1c(C)cc(C#N)cc1C | 7.8 | 7.8 | 1.49 | 7.92 | 9.1 |  |
| C#Cc1cc(C)c(Oc2ccnc(Nc3ccc(C#N)cc3)n2)c(C)c1 | 6.73 | 7.3 | 1.53 | 6.77 | 8.26 |  |
| Cc1cc(C#N)cc(C)c1Nc1nc(Nc2ccc(C#N)cc2)nc(CO)c1Br | 8.7 | 8.22 | 0.81 | 8.22 | 8.4 |  |
| Cc1cc(C#N)cc(C)c1Nc1nc(Nc2ccc(C#N)cc2)ncc1Br | 8.15 | 8.48 | 1.39 | 8.02 | 9.4 |  |
| Cc1cc(C#N)cc(C)c1Oc1nc(Nc2ccc(C#N)cc2)ncc1[N+](=O)[O-] | 6.92 | 6.11 |  | 6.52 | 7.74 | 0.7 |
| N#Cc1ccc(Nc2nccc(Nc3c(Cl)cc(Cl)cc3Cl)n2)cc1 | 7.85 | 7 | 0.51 | 8 | 9.15 |  |
| Cc1cc(C)c(Nc2ccnc(Nc3ccc(C#N)cc3)n2)c(C)c1 [DAPIVIRINE] | 7.74 | 7.32 | 1.64 | 8.12 | 9 |  |
| Cc1cc(C#N)cc(C)c1Nc1nc(Nc2ccc(C#N)cc2)ncc1Cl | 8.28 | 8.33 | 1.11 | 7.85 | 8.92 |  |
| Cc1cc(C#N)cc(C)c1Oc1ccnc(Nc2ccc(C#N)cc2)n1 | 7.14 | 7.72 | 1.39 | 7.43 | 8.96 |  |
| CC(=O)Nc1cnc(Nc2ccc(C#N)cc2)nc1Oc1c(C)cc(C#N)cc1C |  |  | -0.38 |  |  |  |
| Cc1cc(C#N)cc(C)c1Nc1nc(Nc2ccc(C#N)cc2)nc(NO)c1Br | 8.92 |  | 2.18 | 7.92 | 8.4 |  |
| Cc1cc(C#N)cc(C)c1Oc1nc(Nc2ccc(C#N)cc2)ncc1Cl | 8.12 | 8.32 | 1.29 | 7.47 | 8.85 |  |
